In US20120214822A1 (ASTRAZENECA AB, priority 2007, published 2012):
Counter-ions that a name gives are not always drawn.

Biological target: human active recombinant p38α-6His tagged (Homo sapiens, UniProt Q16539)
Experiment: P38 Alpha Enzyme Assay (AlphaScreen, biotinylated-ATF2 substrate);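 further: 0.5 nM final p38α, reaction started with ATP and run 45 min at 37 °C, phospho-ATF2 read by antibody-based AlphaScreen, background wells quenched with EDTA before ATP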
Assay type: biochemical
Conditions: p38 alpha enzyme inhibition; means of replicate determinations; 4 h pre-incubation at 37° C.; SD of assay 0.2-0.3 log units

Chain of human active recombinant p38α-6His tagged (Q16539 whole entry): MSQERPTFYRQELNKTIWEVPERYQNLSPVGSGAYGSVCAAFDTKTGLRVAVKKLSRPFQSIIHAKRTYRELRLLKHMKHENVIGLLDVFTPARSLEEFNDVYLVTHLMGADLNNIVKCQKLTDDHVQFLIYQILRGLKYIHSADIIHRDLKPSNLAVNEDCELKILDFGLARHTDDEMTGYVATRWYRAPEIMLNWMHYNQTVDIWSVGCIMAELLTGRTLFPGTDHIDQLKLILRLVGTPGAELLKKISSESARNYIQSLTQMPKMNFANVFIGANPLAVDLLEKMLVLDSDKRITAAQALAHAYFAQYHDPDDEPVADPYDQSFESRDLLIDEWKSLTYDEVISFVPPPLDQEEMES

Row | SMILES | pIC50 | IC50 [nM]
1 | Cc1ccc(C(=O)NC2CC2)cc1-n1ccnc(NC2(c3ccccc3OCCN[C@H](C)CO)CC2)c1=O [Example 249, N-Cyclopropyl-3-[3-[[1-[2-[2-[[(1R)-2-hydroxy-1-methylethyl]amino]ethoxy]phenyl]cyclopropyl]amino]-2-oxo-1(2H)-pyrazinyl]-4-methyl-benzamide] | 9.9 | 
2 | Cc1c(F)cc(C(=O)NC2CC2)cc1-n1ccnc(N[C@@H](c2ccccc2)[C@@H](C)CN2CCCCC2)c1=O [Example 329, N-Cyclopropyl-3-fluoro-4-methyl-5-[3-{[(1R,2S)-2-methyl-1-phenyl-3-piperidin-1-ylpropyl]amino}-2-oxopyrazin-1(2H)-yl]benzamide] | 9.6 | 
3 | Cc1ccc(C(=O)NC2CC2)cc1-n1ccnc(NC(C)(C)c2ccccc2OC[C@@H](CO)N(C)C)c1=O [Example 306, N-Cyclopropyl-3-[3-{[1-(2-{[(2R)-2-(dimethylamino)-3-hydroxypropyl]oxy}phenyl)-1-methylethyl]amino}-2-oxopyrazin-1(2H)-yl]-4-methylbenzamide] | 10.1 | 
4 | Cc1ccc(C(=O)NC2CC2)cc1-n1cc(C#N)nc(NCc2ccccc2)c1=O [Example 104, 3-[5-Cyano-2-oxo-3-[(phenylmethyl)amino]-1(2H)-pyrazinyl]-N-cyclopropyl-4-methyl-benzamide] | 7.2 | 
5 | Cc1ccc(C(=O)NC2CC2)cc1-n1ccnc(N[C@@H](c2ccccc2)C2CCNCC2)c1=O [Example 101, N-Cyclopropyl-4-methyl-3-[2-oxo-3-[[(R)-phenyl-4-piperidinylmethyl]amino]-1(2H)-pyrazinyl]-benzamide, trifluoroacetate] | 7.4 | 
6 | CCc1ccc(C(=O)NC2CC2)cc1-n1ccnc(NC(C)(C)c2ccccc2OCCNCCO)c1=O [Example 291, N-Cyclopropyl-4-ethyl-3-[3-{[1-(2-{2-[(2-hydroxyethyl)amino]ethoxy}phenyl)-1-methylethyl]amino}-2-oxopyrazin-1(2H)-yl]benzamide] | 8.5 | 
7 | Cc1ccc(C(=O)NC2CC2)cc1-n1ccnc(NCc2cccc(C(=O)NC3CC3)c2)c1=O [Example 69, N-Cyclopropyl-3-[3-[[[3-[(cyclopropylamino)carbonyl]phenyl]methyl]amino]-2-oxo-1(2H)-pyrazinyl]-4-methyl-benzamide] | 6.2 | 
8 | Cc1ccc(C(=O)NC2CC2)cc1-n1ccnc(NCc2ccc3c(c2)OCO3)c1=O [Example 32, 3-[3-[(1,3-Benzodioxol-5-ylmethyl)amino]-2-oxo-1(2H)-pyrazinyl]-N-cyclopropyl-4-methyl-benzamide] | 6.8 | 
9 | CCNCCOc1ccccc1C(C)(C)Nc1nccn(-c2cc(C(=O)NC3CC3)cc(F)c2C)c1=O [Example 252, N-Cyclopropyl-3-[3-[[1-[2-[2-(ethylamino)ethoxy]phenyl]-1-methylethyl]amino]-2-oxo-1(2H)-pyrazinyl]-5-fluoro-4-methyl-benzamide] | 10.1 | 
10 | Cc1ccc(C(=O)NC2CC2)cc1-n1ccnc(NC2(c3ccccc3OCCNCCO)CCC2)c1=O [Example 270, N-Cyclopropyl-3-[3-[[1-[2-[2-[(2-hydroxyethyl)amino]ethoxy]phenyl]cyclobutyl]amino]-2-oxo-1(2H)-pyrazinyl]-4-methyl-benzamide] | 9.9 | 
11 | Cc1ccc(C(=O)NC2CC2)cc1-n1ccnc(N[C@@H](CO)c2ccccc2)c1=O [Example 81, N-Cyclopropyl-3-[3-[[(1R)-2-hydroxy-1-phenylethyl]amino]-2-oxo-1(2H)-pyrazinyl]-4-methyl-benzamide] | 6.3 | 
12 | Cc1ccc(C(=O)NC2CC2)cc1-n1ccnc(N[C@H](C)c2cccc3ccccc23)c1=O [Example 84, N-Cyclopropyl-4-methyl-3-[3-[[(1R)-1-(1-naphthalenyl)ethyl]amino]-2-oxo-1(2H)-pyrazinyl]-benzamide] | 8.6 | 
13 | Cc1c(F)cc(C(=O)NC2CC2)cc1-n1ccnc(NC2(c3ccccc3OCCN)CC2)c1=O [Example 314, 3-[3-({1-[2-(2-Aminoethoxy)phenyl]cyclopropyl}amino)-2-oxopyrazin-1(2H)-yl]-N-cyclopropyl-5-fluoro-4-methylbenzamide] | 10.4 | 
14 | Cc1ccc(C(=O)NC2CC2)cc1-n1ccnc(N2CCCC(c3ccc(OCCN4CCCC4)cc3)C2)c1=O (stereo not drawn) [Example 59, N-Cyclopropyl-4-methyl-3-[2-oxo-3-[3-[4-[2-(1-pyrrolidinyl)ethoxy]phenyl]-1-piperidinyl]-1(2H)-pyrazinyl]-benzamide] | 7.2 | 

The next lines start with the values.

Row | pIC50 | IC50 [nM] | SMILES
15 | 10.2 |  | CCNCCOc1ccccc1C1(Nc2nccn(-c3cc(C(=O)NC4CC4)cc(F)c3C)c2=O)CC1 [Example 262, N-Cyclopropyl-3-[3-[[1-[2-[2-(ethylamino)ethoxy]phenyl]cyclopropyl]amino]-2-oxo-1(2H)-pyrazinyl]-5-fluoro-4-methyl-benzamide]
16 | 7.8 |  | CCOc1ccccc1CNc1nccn(-c2cc(C(=O)NC3CC3)ccc2C)c1=O [Example 78, N-Cyclopropyl-3-[3-[[(2-ethoxyphenyl)methyl]amino]-2-oxo-1(2H)-pyrazinyl]-4-methyl-benzamide]
17 | 9.6 |  | CCNCCOc1ccccc1C(C)(C)Nc1nccn(-c2cc(C(=O)NC3CC3)ccc2C)c1=O [Example 198, N-Cyclopropyl-3-[3-[[1-[2-[2-(ethylamino)ethoxy]phenyl]-1-methylethyl]amino]-2-oxo-1(2H)-pyrazinyl]-4-methyl-benzamide]
18 | 9.4 |  | Cc1ccc(C(=O)NC2CC2)cc1-n1ccnc(NC2(c3ccccc3OCCN3CCNCC3)CC2)c1=O [Example 243, N-Cyclopropyl-4-methyl-3-[2-oxo-3-[[1-[2-[2-(1-piperazinyl)ethoxy]phenyl]cyclopropyl]amino]-1(2H)-pyrazinyl]-benzamide]
19 | 9.8 |  | Cc1c(F)cc(C(=O)NC2CC2)cc1-n1ccnc(NC(C)(C)c2ccccc2SCCNCCO)c1=O [Example 322, N-Cyclopropyl-3-fluoro-5-[3-({1-[2-({2-[(2-hydroxyethyl)amino]ethyl}sulfanyl)phenyl]-1-methylethyl}amino)-2-oxopyrazin-1(2H)-yl]-4-methylbenzamide]
20 | 8.9 |  | Cc1ccc(C(=O)NC2CC2)cc1-n1ccnc(N[C@@H](c2ccccc2)[C@@H](C)CN2CCC(C)CC2)c1=O [Example 170, N-Cyclopropyl-4-methyl-3-[3-[[(1R,2S)-2-methyl-3-(4-methyl-1-piperidinyl)-1-phenylpropyl]amino]-2-oxo-1(2H)-pyrazinyl]-benzamide]
21 | 9.6 |  | Cc1ccc(C(=O)NC2CC2)cc1-n1ccnc(NC(C)(C)c2ccccc2OC2CNC2)c1=O [Example 215, N-Cyclopropyl-4-methyl-3-[3-[[1-[2-(3-azetidinyloxy)phenyl]-1-methylethyl]amino]-2-oxo-1(2H)-pyrazinyl]-benzamide]
22 | 6.1 |  | Cc1ccc(C(=O)NC2CC2)cc1-n1ccnc(NCCCN(C)C)c1=O [Example 3, N-Cyclopropyl-3-[3-[[3-(dimethylamino)propyl]amino]-2-oxo-1(2H)-pyrazinyl]-4-methyl-benzamide]
23 | 6.8 |  | Cc1ccc(C(=O)NC2CC2)cc1-n1ccnc(N2CCCCC2)c1=O [Example 76, N-Cyclopropyl-4-methyl-3-[2-oxo-3-(1-pipendinyl)-1(2H)-pyrazinyl]-benzamide]
24 | 9.6 |  | Cc1ccc(C(=O)NC2CC2)cc1-n1ccnc(NC2(c3cccc(F)c3OCCNCCO)CC2)c1=O [Example 285, N-Cyclopropyl-3-[3-{[1-(3-fluoro-2-{2-[(2-hydroxyethyl)amino]ethoxy}phenyl)cyclopropyl]amino}-2-oxopyrazin-1(2H)-yl]-4-methylbenzamide]
25 | 8.3 |  | CCNC(=O)c1ccc(C)c(-n2ccnc(NC(C)(C)c3ccccc3OCCNC)c2=O)c1 [Example 220, N-Ethyl-4-methyl-3-[3-[[1-methyl-1-[2-[2-(methylamino)ethoxy]phenyl]ethyl]amino]-2-oxo-1(2H)-pyrazinyl]-benzamide]
26 |  | 25.1 | CNCCCOc1ccccc1[C@@H]1CCCN1c1nccn(-c2cc(C(=O)NC3CC3)ccc2C)c1=O (single isomer, unassigned) [Example 326]
27 | 7.3 |  | Cc1ccc(C(=O)NC2CC2)cc1-n1ccnc(SCc2ccccc2)c1=O [Example 118]
28 | 10.2 |  | COCCNCCOc1ccccc1C(C)(C)Nc1nccn(-c2cc(C(=O)NC3CC3)cc(F)c2C)c1=O [Example 255, N-Cyclopropyl-3-fluoro-5-[3-[[1-[2-[2-[(2-methoxyethyl)amino]ethoxy]phenyl]-1-methylethyl]amino]-2-oxo-1(2H)-pyrazinyl]-4-methyl-benzamide]
29 | 9.6 |  | Cc1ccc(C(=O)NC2CC2)cc1-n1ccnc(N[C@@H](c2ccccc2)[C@@H](C)CN2CCN(C3CCS(=O)(=O)C3)CC2)c1=O (stereo partly drawn) [Example 191, N-Cyclopropyl-4-methyl-3-[3-[[(1R,2S)-2-methyl-1-phenyl-3-[4-(tetrahydro-1,1-dioxido-3-thienyl)-1-piperazinyl]propyl]amino]-2-oxo-1(2H)-pyrazinyl]-benzamide]
30 | 8.9 |  | CCN(CC)C[C@H](C)[C@@H](Nc1nccn(-c2cc(C(=O)NC3CC3)ccc2C)c1=O)c1ccccc1 [Example 146, N-cyclopropyl-3-[3-[[(1R,2S)-3-(diethylamino)-2-methyl-1-phenylpropyl]amino]-2-oxo-1(2H)-pyrazinyl]-4-methyl-benzamide]
31 | 9.8 |  | CC[C@@H](Nc1nccn(-c2cc(C(=O)NOC)ccc2C)c1=O)c1ccccc1 [Example 113, N-Methoxy-4-methyl-3-[2-oxo-3-[[(1R)-1-phenylpropyl]amino]-1(2H)-pyrazinyl]-benzamide, trifluoroacetate]
32 | 9.8 |  | Cc1ccc(C(=O)NC2CC2)cc1-n1ccnc(NC2(c3ccccc3OCCN3CCC[C@H]3C)CC2)c1=O [Example 247, N-Cyclopropyl-4-methyl-3-[3-[[1-[2-[2-[(2R)-2-methyl-1-pyrrolidinyl]ethoxy]phenyl]cyclopropyl]amino]-2-oxo-1(2H)-pyrazinyl]-benzamide]
33 | 9.6 |  | CNCCCOc1ccccc1C(C)(C)Nc1nccn(-c2cc(C(=O)NC3CC3)ccc2C)c1=O [Example 164, N-Cyclopropyl-4-methyl-3-[3-[[1-methyl-1-[2-[3-(methylamino)propoxy]phenyl]ethyl]amino]-2-oxo-1(2H)-pyrazinyl]-benzamide]
